From patent publication US6846641B2, “In vitro ischemia model” (AGY Therapeutics, Inc., priority 2002, dated 2005)
Structures can show the parent of a compound that is named as a salt.

Columns and labels:
CA1 cells = details: given after the ischemic insult; cited from earlier work
[1] = test system: CA1 region of mouse hippocampal organotypic tissue cultures; assay: Oxygen and glucose deprivation (OGD) in iCSF, propidium iodide uptake in mouse hippocampal organotypic cultures; format: cell-based; details: 24 hours of recovery

Compound | protection of CA1 cells (CA1 cells) | less damage in the CA1 region compared to matched OGD-control cultures ([1]; 20 μM, pretreatment one hour before 15-minute OGD in iCSF) [%] | protective effect (damage in CA1 versus OGD-controls) ([1]; 150 μM, one hour before OGD, in iCSF during 15-minute OGD and throughout recovery) [%] | protective effect against 15-minute-OGD in iCSF (PI-intensity in the CA1-area) ([1]; 150 μM, p<0.0001, n=18-24)
C[C@]12N[C@H](Cc3ccccc31)c1ccccc12 [MK-801, dizocilpine maleate] | protected CA1 cells | 90 | – | –
N[C@H](CCCP(=O)(O)O)C(=O)O [D-AP5, D-2 amino-5-phosphonopentanoic-acid] | – | – | 70 | significant
